Reference: patent publication EP3381906A1, “COMPOUNDS FOR USE AS HEPARANASE INHIBITORS” (Leadiant Biosciences SA, priority 2017, dated 2018)

Experiments:
[1] = test system: HT1080 (human fibrosarcoma); assay: Matrigel cell invasion assay; type: cell-based; conditions: for inhibition at 2.5 µM: HT-1080, HT1080, Conc. 2.5 µM
Experimental: Heparanase inhibitors were then evaluated for their activity on the invasive potential of HT1080 (human fibrosarcoma) human cell lines, using the Matrigel cell invasion assay which allows to assess the cell invasion ability of malignant and normal cells.
Invasion assay was performed using BioCoat cell culture inserts (BioCoat 8.0µm PET Membrane 24 Well Permeable Supports, Corning). Filters were coated with 100 µl of 300 µg/ml Matrigel dissolved in coating buffer (0.01M Tris pH 8.0, 0.7% NaCl) (Becton-Dickinson Sciences). DMEM (Dulbecco's Modified Eagle's Medium) containing 5% FBS was added to the lower chambers. Cells were pre-treated with heparanase inhibitors for 24 h, detached and added to the upper chambers in media containing the inhibitors. Cells were allowed to invade for 24 h at 37°C in a CO2 incubator and then unmigrated cells were removed from the upper chamber with a cotton swab. The invading cells were fixed, stained with 0.1% crystal violet for 10 min at room temperature, photographed and counted under inverted microscope.
Test compounds were analyzed at fixed concentration for several fields, in duplicates. Activity of test compounds was compared to the reference compound. Activity of most interesting compound was confirmed in a second cell invasion assay. Data were expressed as the percent invasion with respect to cell migration through uncoated insert membrane. (Table 5)

[2] = test system: U87MG; assay: Matrigel cell invasion assay; type: cell-based, human; parameters: key to Invasion Assay Inhibition (%) U87MG: +++: > 90%; ++: 50-90 %; +: < 50%; -: Not active; conditions: for inhibition at 2.5 µM: Homo sapiens, U-87 MG, Conc. 2.5 µM
[3] = test system: genes encoding for proangiogenic factors, such as FGF1/2, VEGF, MMP-9, HSPE-1; assay: Real-Time Quantitative PCR in HT1080 cells; type: cell-based, human; conditions: compared with SST0001 tested at 10 µM
Experimental: (§1) To evaluate the effect of heparanase inhibitors on the tumor transcription of genes encoding for proangiogenic factors, such as FGF1/2, VEGF, MMP-9, HSPE-1, the relative mRNA levels were analyzed by quantitative Real-Time Quantitative PCR. To perform the assay, HT1080 (human fibrosarcoma) cells were cultured in complete medium containing 10%FCS (fetal calf serum). Cells were plated in 24-well plates and treated at fixed concentration (i.e., highest non-toxic concentration) of test compounds. After 24 h, cells were detached, collected and total RNA extracted by RNeasy Mini Kit (QIAGEN). Following reverse transcription step, FGF1/2, VEGF, MMP-9, HSPE-1 mRNA levels, were quantified by qPCR using the advanced Universal SYBR Green Supermix (Bio Rad) and ABI PRISM 7900HT Thermal Cycler System (Perkin Elmer), according to the manufacturer's instructions. Appropriate no-RT and non-template controls were included in each 96-well PCR reaction, and dissociation analysis was performed at the end of each run to confirm the specificity of the reaction. Relative levels of RNA were calculated using the ddCt method. Standard curve and sample data were run in duplicate. In the Table a mean value is reported.

[4] = test system: MMP-9; assay: Real-Time Quantitative PCR of pro-angiogenic genes in HT1080 cells; type: cell-based, human; conditions: 24 h, Conc 2.5 uM
Experimental: as §1

[5] = test system: VEGF; assay: as above; type: cell-based, human; conditions: 24 h, Conc 2.5 uM
Experimental: as §1

[6] = test system: FGF-2; assay: as above; type: cell-based, human; conditions: 24 h, Conc 2.5 uM
Experimental: as §1

[7] = test system: FGF-1; assay: as above; type: cell-based, human; conditions: 24 h, Conc 2.5 uM
Experimental: as §1

[8] = test system: U2OS; assay: Matrigel cell invasion assay; type: cell-based, human; parameters: key to Invasion Assay Inhibition (%) U2OS: +++: > 90%; ++: 50-90 %; +: < 50%; -: Not active; conditions: for inhibition at 2.5 µM: Homo sapiens, Conc. 2.5 µM
[9] = test system: U87MG; assay: Cell adhesion assay on matrigel coated wells; type: cell-based, human; conditions: percent of adhesion with respect to the control (100%)
[10] = test system: HT1080 (human fibrosarcoma); assay: Cell adhesion assay on matrigel coated wells; type: cell-based; conditions: percent of adhesion with respect to the control (100%)
Experimental: Cell surface, non-integrin molecules such as heparan sulfate proteoglycans (HSPGs) may be involved in the regulation of early adhesive stages of cell-ECM interactions. A cell adhesion assay has been employed to determine if the newly designed heparanase inhibitors were able to interfere with adhesion properties of cancer cells.
HT1080 (human fibrosarcoma) cells were treated for 18-20 h with test compounds in complete medium supplemented with 10% FCS. Then cells were collected, washed in complete medium, and added to matrigel coated wells in triplicate, at previously identified optimal seeding density, and incubated at 37 °C in complete medium for times ranging from 15 minutes to 4h, according to the cell line. After incubation, the wells were washed three times with serum-free medium and the remaining firmly attached cells were stained with crystal-violet 0.1%. Optical density was measured at 560 nm by Victor 3 (Perkin-Elmer) plate analyzer. Each experiment was repeated three times.

[11] = test system: U2OS (human osteosarcoma); assay: SRB Cell Cytotoxicity Assay; type: cell-based; conditions: treated for 72h, read-out: Concentration of test compounds at which the cell growth is inhibited by 50 % U2OS
Description: (§2) SRB Cell Cytotoxicity Assay is an assay based upon the quantitative staining of cellular proteins by sulforhodamine B (SRB). This assay can be used for high-throughput drug screening (Vichai & Kirkitara, Nature Protocol. 2006, 1, 112). Sulforhodamine B is an anionic aminoxanthene dye that forms an electrostatic complex with the basic amino acid residues of proteins under moderately acid conditions, which provides a sensitive linear response.
(§3) To assess a putative antiproliferative activity of the selected compounds, HT1080 (human fibrosarcoma), U87MG (human glioblastoma astrocytoma) and U2OS (human osteosarcoma) cell lines were treated for 72h, in triplicate, with increasing concentrations of heparanase inhibitors. Inhibition of cell proliferation was then measured by the classical colorimetric SRB Cell Cytotoxicity assay. Absorbance was measured by spectrophotometer at a wavelength of 510 nm and cell proliferation was determined as percent with respect to control cells (cells treated with the vehicle alone). EC50 values were then determined by GraphPad Prism.

[12] = test system: HT1080 (human fibrosarcoma); assay: SRB Cell Cytotoxicity Assay; type: cell-based; conditions: HT-1080, HT1080, treated for 72h, read-out: Concentration of test compounds at which the cell growth is inhibited by 50 % HT1080
Description: as §2, §3

[13] = test system: U87MG (human glioblastoma astrocytoma); assay: SRB Cell Cytotoxicity Assay; type: cell-based; conditions: U-87 MG, treated for 72h, read-out: Concentration of test compounds at which the cell growth is inhibited by 50 % U87MG
Description: as §2, §3

[14] = biological target: T1, heparanase (Homo sapiens, UniProt Q9Y251); assay: AGA*IA assay: heparanase-catalyzed fondaparinux cleavage, colorimetric (WST-1); type: biochemical; conditions: 2.5 nM heparanase, 100 µM fondaparinux, pH 5.0, 3 h at 37°C; class symbols; read-out: AGAIA assay (IC50)
T1 construct: 100 µM fondaparinux, 2.5 nM heparanase and serial dilutions of test compounds
T1 sequence (Q9Y251 158-543 limits assumed): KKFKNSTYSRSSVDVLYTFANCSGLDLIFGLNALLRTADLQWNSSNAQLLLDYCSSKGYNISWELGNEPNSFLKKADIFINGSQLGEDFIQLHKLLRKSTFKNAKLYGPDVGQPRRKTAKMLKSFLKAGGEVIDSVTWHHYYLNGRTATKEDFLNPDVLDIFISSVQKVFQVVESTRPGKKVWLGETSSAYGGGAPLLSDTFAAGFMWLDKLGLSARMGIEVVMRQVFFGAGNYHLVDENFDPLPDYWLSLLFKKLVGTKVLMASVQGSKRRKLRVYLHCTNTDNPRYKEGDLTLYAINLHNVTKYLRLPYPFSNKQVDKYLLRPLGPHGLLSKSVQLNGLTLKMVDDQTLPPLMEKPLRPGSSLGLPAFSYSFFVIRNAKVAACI
T1 sequence (Q9Y251 36-109 limits assumed): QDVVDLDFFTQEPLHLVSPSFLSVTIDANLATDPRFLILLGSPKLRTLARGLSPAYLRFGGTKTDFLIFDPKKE
Experimental: All compounds were tested in a simple, accurate and robust microplate assay based on the cleavage of the synthetic heparin fragment, the pentasaccharide Fondaparinux (AGA*IA). This assay was originally developed by Hammond and coworkers [Hammond E, Li CP, Ferro V. Development of a colorimetric assay for heparanase activity suitable for kinetic analysis and inhibitor screening. […] Fondaparinux is cleaved by heparanase to generate a reducing disaccharide, which can be quantitatively measured via a colorimetric or a fluorescence assay, the last by the fluorescent sensor polymer-H [Schiemann S, Lühn S, Alban S. Development of both colorimetric and fluorescence heparinase activity assays using fondaparinux as substrate.
The assay measures the appearance of the disaccharide product of heparanase-catalyzed fondaparinux cleavage colorimetrically using the tetrazolium salt WST-1. Assay was essentially performed as described with minor modifications. Briefly, NUNC ELISA 96-well plates were pre-treated with a solution of 4% BSA (bovin serum albumin) in phosphate-buffered saline containing 0.05% Tween 20 (PBST), for 2 h at 37°C, then washed three times with PBST, dried by tapping on paper towel and stored at -20°C. Before use, once again, the plates were washed with PBST.
Then, the absorbance at 560 nm was measured through a microplate reader (Victor 3, Perkin Elmer).
Finally, the measurements were corrected by subtracting both the reagent background and the inner absorbance value of test compound.

| Structure (SMILES) | inhibition at 2.5 µM [1] [%] | inhibition at 2.5 µM [2] [%] | potency in silencing gene expression [3] | Gene Expression (% mRNA vs. control) MMP-9 [4] | Gene Expression (% mRNA vs. control) VEGF [5] | Gene Expression (% mRNA vs. control) FGF-2 [6] | Gene Expression (% mRNA vs. control) FGF-1 [7] | inhibition at 2.5 µM [8] [%] | Adhesion Assay (%) U87MG ([9]; Conc. 2.5 µM) | Adhesion Assay (%) HT1080 ([10]; HT1080, Conc. 2.5 µM) | inhibition at 10 µM ([1]; HT-1080, HT1080, Conc. 10 µM) [%] | Invasion Assay Inhibition (%) U87MG ([2]; Conc. 10 µM) | Invasion Assay Inhibition (%) U2OS ([8]; Conc. 10 µM) | Adhesion Assay (%) U87MG ([9]; Conc. 10 µM) | EC50 [11] [nM] | EC50 [12] [nM] | EC50 [13] [nM] | Adhesion Assay (%) HT1080 ([10]; HT1080, Conc. 10 µM) | IC50 [14] [nM] |
| --- | --- | --- | --- | --- | --- | --- | --- | --- | --- | --- | --- | --- | --- | --- | --- | --- | --- | --- | --- |
| O=C(O)c1ccc2c(c1)C(=O)N(c1ccc(NC(=O)c3cccc(C(=O)Nc4ccc(N5C(=O)c6ccc(C(=O)O)cc6C5=O)cc4Cl)c3)c(Cl)c1)C2=O [SST0859, 2-[4-[[3-[[4-(5-carboxy-1,3-dioxoisoindol-2-yl)-2-chlorophenyl]carbamoyl]benzoyl]amino]-3-chlorophenyl]-1,3-dioxoisoindole-5-carboxylic acid] | < 50 | < 50 | in the same range of reference compound SST0001 | ∼ 40% | ∼ 61% | ∼ 73% | ∼ 67% | 50 to 90 | ∼ 100% | ∼ 95% |  |  |  |  |  |  |  |  |  |
| Cc1ccc(C(=O)Nc2ccc(S(=O)(=O)O)c3cc(S(=O)(=O)O)cc(S(=O)(=O)O)c23)cc1NC(=O)c1cccc(NC(=O)Nc2cccc(C(=O)Nc3cc(C(=O)Nc4ccc(S(=O)(=O)O)c5cc(S(=O)(=O)O)cc(S(=O)(=O)O)c45)ccc3C)c2)c1 [Suramin, reference compound] |  |  |  |  |  |  |  |  |  |  | < 50 | - | - | ∼ 73% | > 10000 | > 10000 | > 10000 | ∼ 100% |  |
| O=C(Nc1ccc(-c2nc3ccccc3[nH]2)cc1)c1ccc(C(=O)Nc2ccc(-c3nc4ccccc4[nH]3)cc2)cc1 [SST0856, 1,4-Benzenedicarboxamide, N1,N4-bis[4-(1H-benzimidazol-2-yl)phenyl]-] | < 50 | < 50 | in the same range of reference compound SST0001 | ∼ 55% | ∼ 54% | ∼ 76% | ∼ 53% | 50 to 90 | ∼ 99% | ∼ 98% |  |  |  |  |  |  |  |  |  |
| O=C(Nc1cccc(-c2nc3ccccc3[nH]2)c1)c1ccc(Oc2ccc(C(=O)Nc3cccc(-c4nc5ccccc5[nH]4)c3)cc2)cc1 [SST0656, N-[3-(1H-benzimidazol-2-yl)phenyl]-4-[4-[[3-(1H-benzimidazol-2-yl)phenyl]carbamoyl]phenoxy]benzamide] | < 50 | < 50 |  |  |  |  |  | < 50 | ∼ 97% | ∼ 87% |  |  |  |  | > 2500 | > 2500 | > 2500 |  | 50 to 490 |
| O=C(O)/C=C/C(=O)Nc1ccc(Sc2ccc(Oc3ccc(Sc4ccc(NC(=O)/C=C/C(=O)O)cc4)cc3)cc2)cc1 [SST0806, (E)-4-[4-[4-[4-[4-[[(E)-3-carboxyprop-2-enoyl]amino]phenyl]sulfanylphenoxy]phenyl]sulfanylanilino]-4-oxobut-2-enoic acid] |  |  |  |  |  |  |  |  |  |  |  |  |  |  | > 2500 | > 2500 | > 2500 |  | 500 to 990 |
